Four molecules from ChEMBL document CHEMBL4311942, “Design of Trp-Rich Dodecapeptides with Broad-Spectrum Antimicrobial Potency and Membrane-Disruptive Mechanism” (J Med Chem, 2019) can be followed below.

Converted amounts (≈) assume the structure as drawn. Where a SMILES comes first, the peptide text is derived from it.

For data set [1], the system named is Escherichia coli. Put plainly: Antibacterial activity against Escherichia coli UB1005 incubated for 18 to 24 hrs by broth microdilution method. The class given is functional. In general terms: Broth dilution looks for growth in wells or tubes with falling amounts of substance.
The subject of data set [2] is Staphylococcus aureus. Put plainly: Antibacterial activity against Staphylococcus aureus ATCC 25923 incubated for 18 to 24 hrs by broth microdilution method. The class given is functional.
Data set [3] is described as follows: Therapeutic index, ratio of MHC for human RBC to geometric mean of peptide MIC for Escherichia coli ATCC 25922. It is filed as toxicity. The settings on record: pooled result: one value given for 6 cell lines, strains, targets or settings, read-out: TI.
Data set [4] relates to Acinetobacter baumannii. The data set can be described thus: Antibacterial activity against Acinetobacter baumannii AB1901 clinical isolate incubated for 18 to 24 hrs by broth microdilution method. It is filed as functional.
Data set [5] in a line: Cytotoxicity against mouse RAW264.7 cells assessed as cell survival at < 32 uM after 24 hrs by MTT assay. It is filed as cell-based. Conditions: read-out: Activity. Background: Tetrazolium dyes change colour on reduction, which living cells bring about.
For data set [6], the system named is Staphylococcus aureus. Put plainly: Antibacterial activity against Staphylococcus aureus 11011 incubated for 18 to 24 hrs by broth microdilution method. It is filed as functional.
Another data set concerns Pseudomonas aeruginosa. The data set can be described thus: Antibacterial activity against Pseudomonas aeruginosa 25349 clinical isolate incubated for 18 to 24 hrs by broth microdilution method. The class given is functional.
The subject of data set [7] is Escherichia coli. The data set can be described thus: Antibacterial activity against Escherichia coli 20411 clinical isolate incubated for 18 to 24 hrs by broth microdilution method. The class given is functional.
Data set [8] concerns Escherichia coli. The data set can be described thus: Antibacterial activity against Escherichia coli ATCC 25922 incubated for 18 to 24 hrs by broth microdilution method. The class given is functional.
The test system of data set [9] is Staphylococcus aureus. Put plainly: Antibacterial activity against Staphylococcus aureus ATCC 29213 incubated for 18 to 24 hrs by broth microdilution method. It is filed as functional.
The test system of data set [10] is Acinetobacter baumannii. Put plainly: Antibacterial activity against Acinetobacter baumannii AB1902 clinical isolate incubated for 18 to 24 hrs by broth microdilution method. It is filed as functional.
In another data set the test system is Erythrocyte. The data set can be described thus: Haemolytic activity in human erythrocytes assessed as lowest concentration causing 5% hemolysis after 1 hr. The class given is ADME, cell-based.
Data set [11] relates to Staphylococcus epidermidis. The data set can be described thus: Antibacterial activity against Staphylococcus epidermidis ATCC 12228 incubated for 18 to 24 hrs by broth microdilution method. It is filed as functional.
In another data set the test system is Salmonella typhimurium. Put plainly: Antibacterial activity against Salmonella enterica serovar typhimurium C77-31 incubated for 18 to 24 hrs by broth microdilution method. The class given is functional, Salmonella enterica subsp. enterica serovar Typhimurium.

As to `CC[C@H](C)[C@H](NC(=O)[C@H](CCCCN)NC(=O)[C@H](Cc1c[nH]c2ccccc12)NC(=O)[C@H](CCCCN)NC(=O)[C@@H](NC(=O)[C@H](CCCCN)NC(=O)[C@H](Cc1c[nH]c2ccccc12)NC(=O)[C@H](CCCCN)NC(=O)[C@@H](NC(=O)[C@H](CCCCN)NC(=O)[C@@H](N)Cc1c[nH]c2ccccc12)[C@@H](C)CC)[C@@H](C)CC)C(=O)N[C@@H](CCCCN)C(N)=O` (H-WKIKWKIKWKIK-NH2), the minimum inhibitory concentration (MIC) (usually the smallest concentration in the dilution series that meets the test's criterion for growth inhibition) was determined as 2 µM (≈ 3.37 µg/mL) against Escherichia coli [1]; 2 µM (≈ 3.37 µg/mL) in the data set with Staphylococcus aureus [2]; 1 µM (≈ 1.68 µg/mL) with Acinetobacter baumannii [4]; 2 µM (≈ 3.37 µg/mL) in the data set with Staphylococcus aureus [6]; 4 µM (≈ 6.74 µg/mL) against Pseudomonas aeruginosa; 2 µM (≈ 3.37 µg/mL) in the data set on Escherichia coli [7]. Further, the MIC (against Escherichia coli [8]; with Staphylococcus aureus [9]; in the data set with Acinetobacter baumannii [10]; in data set [11]; against Salmonella typhimurium) was 2 µM (≈ 3.37 µg/mL) each time. Moreover, the selectivity ratio in [3] was 32. Besides, the viability at 24 h in data set [5] is greater than 90%. In the data set with Erythrocyte, the MHC amounted to 64 µM.

For the molecule `CC(C)C[C@H](NC(=O)[C@H](CCCCN)NC(=O)[C@H](Cc1c[nH]c2ccccc12)NC(=O)[C@H](CCCCN)NC(=O)[C@H](CC(C)C)NC(=O)[C@H](CCCCN)NC(=O)[C@H](Cc1c[nH]c2ccccc12)NC(=O)[C@H](CCCCN)NC(=O)[C@H](CC(C)C)NC(=O)[C@H](CCCCN)NC(=O)[C@@H](N)Cc1c[nH]c2ccccc12)C(=O)N[C@@H](CCCCN)C(N)=O` (H-WKLKWKLKWKLK-NH2), the minimum inhibitory concentration (MIC) against Escherichia coli [1] worked out at 4 µM (≈ 6.74 µg/mL); against Staphylococcus aureus [2], 2 µM (≈ 3.37 µg/mL); with Acinetobacter baumannii [4] it was 2 µM (≈ 3.37 µg/mL); in the data set on Staphylococcus aureus [6], 2 µM (≈ 3.37 µg/mL); against Pseudomonas aeruginosa it was 4 µM (≈ 6.74 µg/mL); against Escherichia coli [7], 2 µM (≈ 3.37 µg/mL). Also, the MIC amounted to 4 µM (≈ 6.74 µg/mL) against Escherichia coli [8]; 2 µM (≈ 3.37 µg/mL) with Staphylococcus aureus [9]; 4 µM (≈ 6.74 µg/mL) against Acinetobacter baumannii [10]; 2 µM (≈ 3.37 µg/mL) in [11]; 2 µM (≈ 3.37 µg/mL) against Salmonella typhimurium. Moreover, the selectivity ratio in [3] was found to be 50.8. Moreover, the viability at 24 h in data set [5] was greater than 90%. Further, in the data set with Erythrocyte, the MHC was 128 µM.

As for `CC(C)[C@H](NC(=O)[C@H](CCCCN)NC(=O)[C@H](Cc1c[nH]c2ccccc12)NC(=O)[C@H](CCCCN)NC(=O)[C@@H](NC(=O)[C@H](CCCCN)NC(=O)[C@H](Cc1c[nH]c2ccccc12)NC(=O)[C@H](CCCCN)NC(=O)[C@@H](NC(=O)[C@H](CCCCN)NC(=O)[C@@H](N)Cc1c[nH]c2ccccc12)C(C)C)C(C)C)C(=O)N[C@@H](CCCCN)C(N)=O` (H-WKVKWKVKWKVK-NH2), the MIC is 2 µM (≈ 3.28 µg/mL) against Escherichia coli [1]; 2 µM (≈ 3.28 µg/mL) against Staphylococcus aureus [2]; 2 µM (≈ 3.28 µg/mL) against Acinetobacter baumannii [4]; 2 µM (≈ 3.28 µg/mL) against Staphylococcus aureus [6]; 4 µM (≈ 6.57 µg/mL) in the data set with Pseudomonas aeruginosa; 1 µM (≈ 1.64 µg/mL) in the data set with Escherichia coli [7]. For the same molecule, the MIC against Escherichia coli [8] amounted to 2 µM (≈ 3.28 µg/mL); against Staphylococcus aureus [9], 1 µM (≈ 1.64 µg/mL); against Acinetobacter baumannii [10], 1 µM (≈ 1.64 µg/mL); in [11] it was 2 µM (≈ 3.28 µg/mL); with Salmonella typhimurium, 2 µM (≈ 3.28 µg/mL). The selectivity ratio in data set [3] is 144. Besides, the viability at 24 h in data set [5] is greater than 90%. Besides, the MHC with Erythrocyte was greater than 128 µM.

Turning to `C[C@@H](O)[C@H](NC(=O)[C@H](CCCCN)NC(=O)[C@H](Cc1c[nH]c2ccccc12)NC(=O)[C@H](CCCNC(=N)N)NC(=O)[C@H](Cc1ccccc1)NC(=O)[C@H](CCCNC(=N)N)NC(=O)[C@@H](N)Cc1c[nH]c2ccccc12)C(=O)N[C@@H](CCCNC(=N)N)C(=O)N[C@@H](Cc1c[nH]c2ccccc12)C(=O)N[C@@H](CCCNC(=N)N)C(=O)N[C@@H](Cc1ccccc1)C(=O)N[C@@H](CCCCN)C(N)=O` (H-WRFRWKTRWRFK-NH2), the MIC came out at 4 µM (≈ 7.41 µg/mL) against Escherichia coli [1]; 2 µM (≈ 3.7 µg/mL) in the data set with Staphylococcus aureus [2]; 2 µM (≈ 3.7 µg/mL) in the data set on Acinetobacter baumannii [4]; 2 µM (≈ 3.7 µg/mL) against Staphylococcus aureus [6]; 8 µM (≈ 14.8 µg/mL) in the data set on Pseudomonas aeruginosa; 2 µM (≈ 3.7 µg/mL) against Escherichia coli [7]. For the same molecule, the MIC against Escherichia coli [8] is 4 µM (≈ 7.41 µg/mL); with Staphylococcus aureus [9], 2 µM (≈ 3.7 µg/mL); in the data set on Acinetobacter baumannii [10], 4 µM (≈ 7.41 µg/mL); in data set [11], 2 µM (≈ 3.7 µg/mL); in the data set with Salmonella typhimurium it was 2 µM (≈ 3.7 µg/mL). In [3], the selectivity ratio came to 102. Moreover, the viability at 24 h in data set [5] was greater than 90%. The MHC with Erythrocyte is greater than 128 µM.
